Data on three molecules can be found in patent publication US9533040B2, “Inhibition of human immunodeficiency virus integrase reaching dimer formation utilizing single-chain variable antibodies” (priority 2010, dated 2017).

Assay [1] has as its target HIV IN (Human immunodeficiency virus type 1 group M subtype B, UniProt P12497). As to conditions: previous studies; cited from earlier work.
Assay [2] addresses ASV IN (Rous sarcoma virus subgroup C, UniProt P03354, K1536E/R1446K/V1381A). The following applies: previous studies; cited from earlier work.
For assay [3], the target named is T1, HIV IN (F181T) dimer (Human immunodeficiency virus type 1 group M subtype B, UniProt P12497, F1328T).
T1 construct: made in house
In words: FRET multimerization assay (reaching dimer formation). The class given is binding. As to conditions: each at 1 μM; HIV IN (F181T) at 2 μM; relative to untreated control. The protocol:
The effects of monoclonal antibodies and four small molecule inhibitors (each at 1 μM) are shown.
A multimerization assay based on fluorescence resonance energy transfer (FRET) between donor and acceptor dyes attached to C280 in HIV IN was used. The F181T substitution was introduced in order to monitor reaching dimer formation specifically (see Table 1 and FIGS. 9 and 11). One preparation was labeled with a donor fluorophore (Cy3) and a second with the acceptor (Cy5). Upon mixing (final conc. IN between 0.5 to 2 μM) and equilibration, the FRET efficiency obtained is consistent with the expected apparent distance of 60-65 Å in a reaching dimer. The Z′ factor of 0.7 obtained with this assay is in the “excellent” range for high throughput screening, and additional adjustments (e.g., use of alternative dye pairs, filter changes) may allow us to improve sensitivity even further. To validate the assay, the effects of monoclonal antibodies specific for the CTD (mAb33) or NTD (mAb17) of HIV IN were tested (FIG. 31). […] These preliminary results support the notion that compounds that either stabilize or block reaching dimer formation can result in inhibition of catalysis by IN.

ASV IN, sequence (P03354 1281-1566 V1381A/R1446K/K1536E): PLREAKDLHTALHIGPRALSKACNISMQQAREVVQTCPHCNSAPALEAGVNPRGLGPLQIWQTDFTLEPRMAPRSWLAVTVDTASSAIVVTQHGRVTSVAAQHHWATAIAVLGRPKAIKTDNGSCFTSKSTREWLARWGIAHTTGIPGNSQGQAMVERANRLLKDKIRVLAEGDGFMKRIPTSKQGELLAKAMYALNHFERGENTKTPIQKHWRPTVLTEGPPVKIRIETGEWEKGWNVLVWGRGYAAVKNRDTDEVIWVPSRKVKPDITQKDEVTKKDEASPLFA

Regarding 2BrNSA, the “inhibition of HIV IN” value in assay [1] is “robust inhibition”. The “inhibition of ASV IN” value in assay [2] is “robust inhibition”.

B1: mAb33: monoclonal antibody specific for the CTD of HIV IN; single chain Fv sequence SEQ ID NO:194 (protein, listed as Mus musculus)
scFv: MKYLLPTAAAGLLLLAAQPAMAMGHHHHHHHHHHSSGHIDDDDKHMDIQMTQSPSSLSASLGGKVTITCKASQDIYKYIAWYQHKPGKGPRLLIHYTSTLQPGIPSRFSGSGSGRDYSFSISNLEPEDIATYYCLQYDNLWTFGGGTKLEIKRADAAPTVSIFPPSSKLGPGGGGSGGGGSGGGGSELGRSEVKLVESGGGLVKPGGSLKLSCAASGFSFSSYAMSWVRQTPEKRLEWVASISSGGNTYYPDSVKGRFTISRDNARNILYLQMSSLRSEDTAMYYCARLDTTVEGDWYFDVWGAGTTLTVSS
B1: the “effect on FRET-monitored IN self-association (reaching dimer formation)” value in assay [3] is reported as “inhibit FRET-monitored self-association”.

B2: mAb17: monoclonal antibody specific for the NTD of HIV IN; single chain Fv sequence SEQ ID NO:195 (protein, listed as Mus musculus)
scFv: MKYLLPTAAAGLLLLAAQPAMAMGHHHHHHHHHHSSGHIDDDDKHMDVWLTQTPLSLPVSLGDQASISCRSSQTFVHSDGNTYLEWYLQKPGQSPKLLIYKISNRFSGVPDRFSGSGSGTDFTLKISGVEAEDLGLYYCFQGSHVPFTFGSGTKLEIRRADAAPTVSIFPPSSKLGPGGGGSGGGGSGGGGSELGRSQVQLQQSGAELVRPGASVTLSCKASGYTFIEYEMHWVKQAPVHGLEWIGAVDPETGGTAYNQKFKGKAILTADKSSSTGYMELRSLTSESSAVYYCARQGLGYWGQGTLVTVSA
As to B2, the “effect on FRET-monitored IN self-association (reaching dimer formation)” value in assay [3] is given as “inhibit FRET-monitored self-association”.
